This is an account of results in patent US8722649B2, “Alpha-chloro and alpha-bromo phosphonate analogs of lysophosphatidic acid and methods of making and using thereof” (University of Utah Research Foundation, priority 2007, dated 2014).

Where two headings read alike, the source gives them in different places.

One assay has as its target T1, human LPA4 (Homo sapiens, UniProt Q99677).
T1 construct: expressed in transfected cells
Briefly: Ca2+ mobilization assay, LPA4 in CHO cells. It counts as cell-based. Particulars: for EC50: CHO cells stably expressing LPA4, agonist mode. How it is done:
(§1) Receptor activation using Ca^2+ mobilization assay for diastereomers of 1 (also represented as 19b). The rat hepatoma (RH7777) cell lines individually expressing either LPA1, LPA2, LPA3 or LPA5 receptors and Chinese hamster ovary (CHO) cell line were analyzed to examine agonism and antagonism. […] CHO cells stably expressing either vector or LPA4 were kindly gifted from Dr. Shimizu (University of Tokyo, Tokyo, Japan).
Stable transformants of LPA4. CHO cells stably expressing either vector or LPA4 were plated on non-coated 96 well plates at a density of 4×10^4 cells/well and cultured overnight. The following day, cells were loaded with Fura-2 AM for 1 h in modified Krebs buffer containing 2% (v/v) pluronic acid and 2.5 mM probenecid.
(§2) After incubating the cells with Fura-2 AM, the cells were rinsed with Krebs buffer and changes in the intracellular Ca^2+ concentration were monitored by determining the ratio of emitted light intensities at 520 nm in response to excitation at 340 and 380 nm using FLEXstation II (Molecular Devices, Sunnyvale, Calif.). Each well was monitored for 80-120 sec. For testing agonist activity of the compounds, the test compounds were added automatically after 15 sec of baseline measurement. […] Each test was performed in quadruplicate. EC50, IC50, and Ki values were calculated by fitting a sigmoid function to data points with the nonlinear curve-fitting feature of KaleidaGraph (Synergy Software, Essex Junction, Vt.).
(§3) Receptor activation using Ca^2+ mobilization assay. The assay for mobilization of intracellular Ca^2+ was performed as described. Briefly, rat hepatoma RH7777 cells stably expressing human LPA1, LPA2, or LPA3, and CHO cells stably expressing LPA4, were loaded with Fura-2 AM (Molecular Probes). Using a FLEXStation (Molecular Devices, Sunnyvale, Calif.), changes in intracellular Ca^2+ concentration were monitored. Ligand-induced changes in fluorescence were monitored for 80-120 seconds. Ca^2+ transients were quantified automatically by calculating the difference between maximum and baseline ratio values for each sample. […] Each test was performed in quadruplicate. EC50, IC50, and Ki values were calculated as described. The ligand properties of the compounds were evaluated using Ca^2+ mobilization assay for assessing the activation/inhibition of LPA1, LPA2, and LPA3 expressed in RH7777 cells and LPA4 expressed in CHO cells.
Background: Calcium assays in cells follow changes in intracellular calcium, usually with a dye or a luminescent sensor.

In another assay the target is T2, human LPA3 (Homo sapiens, UniProt Q9UBY5).
T2 construct: expressed in transfected cells
T2 sequence (Q9UBY5 1-353): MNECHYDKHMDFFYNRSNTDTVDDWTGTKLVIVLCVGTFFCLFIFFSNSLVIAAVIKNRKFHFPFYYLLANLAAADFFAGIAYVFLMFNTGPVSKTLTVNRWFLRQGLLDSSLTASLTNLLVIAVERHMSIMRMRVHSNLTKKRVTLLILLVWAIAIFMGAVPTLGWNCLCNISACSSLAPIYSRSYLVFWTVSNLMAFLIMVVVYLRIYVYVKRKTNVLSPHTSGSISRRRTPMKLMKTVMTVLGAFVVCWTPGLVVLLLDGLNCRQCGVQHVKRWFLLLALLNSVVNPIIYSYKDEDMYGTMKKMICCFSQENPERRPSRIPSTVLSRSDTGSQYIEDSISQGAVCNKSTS
Briefly: Ca2+ mobilization assay, LPA3. In kind it is cell-based. Conditions: for EC50: RH7777 cells stably expressing LPA3, agonist mode; for Emax: Emax = (maximal efficacy of compound/maximal efficacy of LPA 18:1) × 100. As to the method: as §1
(§4) Stable transformants of LPA1/2/3 receptors. RH7777 cells stably expressing each receptor were plated onto poly-L-lysine (PLL) (0.1 mg/mL)-coated black-wall clear-bottom 96-well plates (Corning Incorporated Life Sciences, Acton, Mass.) at a density of 5×10^4 cells/well and cultured overnight. The following day, the culture medium was replaced with modified Krebs buffer (120 mM NaCl, 5 mM KCl, 0.62 mM MgSO4, 1.8 mM CaCl2, 10 mM HEPES, 6 mM glucose, pH 7.4), and the cells were serum starved for 6 h. Subsequently, cells were loaded with Fura-2 AM (Invitrogen, Carlsbad, Calif.) for 35 min in modified Krebs buffer containing 2% (v/v) pluronic acid.
as §2, §3

The next assay has as its target T3, human LPA1 (Homo sapiens, UniProt Q92633).
T3 construct: expressed in transfected cells
The assay is described as follows: Ca2+ mobilization assay, LPA1. It counts as cell-based. Particulars: for EC50: RH7777 cells stably expressing LPA1, agonist mode; for IC50 / Ki: antagonist mode vs 200 nM LPA; for IC50: PA = partial antagonist, read-out: LPA1 IC50; for Ki: read-out: LPA1 (Ki). How it is done:
as §1, §4
After incubating the cells with Fura-2 AM, the cells were rinsed with Krebs buffer and changes in the intracellular Ca^2+ concentration were monitored by determining the ratio of emitted light intensities at 520 nm in response to excitation at 340 and 380 nm using FLEXstation II (Molecular Devices, Sunnyvale, Calif.). Each well was monitored for 80-120 sec. For testing agonist activity of the compounds, the test compounds were added automatically after 15 sec of baseline measurement. To determine antagonist properties, varying concentrations of the compounds were mixed with a constant concentration of LPA and responses were monitored. Each test was performed in quadruplicate. EC50, IC50, and Ki values were calculated by fitting a sigmoid function to data points with the nonlinear curve-fitting feature of KaleidaGraph (Synergy Software, Essex Junction, Vt.).
Receptor activation using Ca^2+ mobilization assay. The assay for mobilization of intracellular Ca^2+ was performed as described. Briefly, rat hepatoma RH7777 cells stably expressing human LPA1, LPA2, or LPA3, and CHO cells stably expressing LPA4, were loaded with Fura-2 AM (Molecular Probes). Using a FLEXStation (Molecular Devices, Sunnyvale, Calif.), changes in intracellular Ca^2+ concentration were monitored. Ligand-induced changes in fluorescence were monitored for 80-120 seconds. Ca^2+ transients were quantified automatically by calculating the difference between maximum and baseline ratio values for each sample. To determine antagonist properties, different concentrations of each analogue were mixed with either palmitoyl (16:0) or oleoyl (18:1) LPA (200 nM for LPA1 and LPA3, 10 nM for LPA2, and 400 nM for LPA4) (Avanti Polar Lipids, Inc., […], Ala.) and responses were recorded. Each test was performed in quadruplicate. EC50, IC50, and Ki values were calculated as described. The ligand properties of the compounds were evaluated using Ca^2+ mobilization assay for assessing the activation/inhibition of LPA1, LPA2, and LPA3 expressed in RH7777 cells and LPA4 expressed in CHO cells. Table l illustrates calcium responses elicited through the activation of human LPA1, LPA2, LPA3 and LPA4 receptors. These cell lines have been used extensively for the characterization of LPA GPCR ligands because RH7777 cells are intrinsically unresponsive to LPA and CHO cells show minimal endogenous responses to LPA unless transfected with LPA4.

The next assay deals with T4, human LPA2 (Homo sapiens, UniProt Q9HBW0).
T4 construct: expressed in transfected cells
T4 sequence (Q9HBW0 whole entry): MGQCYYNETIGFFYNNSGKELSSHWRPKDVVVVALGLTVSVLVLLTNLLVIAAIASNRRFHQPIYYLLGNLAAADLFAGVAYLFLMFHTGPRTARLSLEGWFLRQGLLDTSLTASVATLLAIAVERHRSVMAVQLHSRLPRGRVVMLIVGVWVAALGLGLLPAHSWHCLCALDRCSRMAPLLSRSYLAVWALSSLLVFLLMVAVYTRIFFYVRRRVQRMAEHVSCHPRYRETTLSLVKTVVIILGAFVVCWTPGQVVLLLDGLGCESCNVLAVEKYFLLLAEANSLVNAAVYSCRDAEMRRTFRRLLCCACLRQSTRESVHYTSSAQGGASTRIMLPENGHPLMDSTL
Briefly: Ca2+ mobilization assay, LPA2. It counts as cell-based. Particulars: for EC50: RH7777 cells stably expressing LPA2, agonist mode; for IC50: read-out: LPA2 IC50; for Ki: read-out: LPA2 (Ki). As to the method:
as §1, §4, §2, §3

The target in the next assay is T5, recombinant ATX-HA (Homo sapiens, UniProt Q13822).
T5 construct: HA
The assay is described as follows: Autotaxin assay (FS-3 hydrolysis). In kind it is biochemical. Conditions: 10.0 μM, FS-3 substrate, preliminary single-dose screen; for inhibition at 10 µM: read-out: Inhibition (%) of autotaxin (ATX) phosphodiesterase activity. How it is done: Autotaxin Assay. This assay utilizes FS-3 (Echelon Biosciences, Inc. Salt Lake City, Utah) as substrate and recombinant ATX-HA. For analysis, 50 μl of ATX-HA (0.25 μg) in assay buffer (Tris 50 mM, NaCl 140 mM, KCl 5mM, CaCl2 1 mM, MgCl2 1 mM, pH 8.0) was mixed with 25 μl of FS-3 (1 μM final concentration in assay buffer) and 25 μl of test compound dissolved in assay buffer containing 1:1.5 bovine serum albumin in 96-well plate. FS-3 fluorescence was monitored using FLEXstation fluorescence plate reader at a time zero and after 2 hours of incubation at 37° C. at excitation and emission wavelengths of 485 nm and 538 nm, respectively. Data was normalized to the corresponding vehicle control and the mean±standard deviation of triplicate wells were expressed as percent ATX inhibition. IC50, and Ki values were calculated as described.

Setting [1] is: antagonist mode vs 10 nM LPA, PA = partial antagonist.

T3 sequence (Q92633 whole entry): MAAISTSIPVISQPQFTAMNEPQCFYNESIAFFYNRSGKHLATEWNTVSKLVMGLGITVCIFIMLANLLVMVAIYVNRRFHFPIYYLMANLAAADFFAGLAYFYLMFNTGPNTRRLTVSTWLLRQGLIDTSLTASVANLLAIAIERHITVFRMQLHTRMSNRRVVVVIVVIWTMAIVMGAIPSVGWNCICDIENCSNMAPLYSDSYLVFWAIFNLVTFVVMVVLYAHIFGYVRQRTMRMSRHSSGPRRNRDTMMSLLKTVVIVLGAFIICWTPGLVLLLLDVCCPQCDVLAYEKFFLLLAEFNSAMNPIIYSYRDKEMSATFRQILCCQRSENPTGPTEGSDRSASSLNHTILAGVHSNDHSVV
T1 sequence (Q99677 whole entry): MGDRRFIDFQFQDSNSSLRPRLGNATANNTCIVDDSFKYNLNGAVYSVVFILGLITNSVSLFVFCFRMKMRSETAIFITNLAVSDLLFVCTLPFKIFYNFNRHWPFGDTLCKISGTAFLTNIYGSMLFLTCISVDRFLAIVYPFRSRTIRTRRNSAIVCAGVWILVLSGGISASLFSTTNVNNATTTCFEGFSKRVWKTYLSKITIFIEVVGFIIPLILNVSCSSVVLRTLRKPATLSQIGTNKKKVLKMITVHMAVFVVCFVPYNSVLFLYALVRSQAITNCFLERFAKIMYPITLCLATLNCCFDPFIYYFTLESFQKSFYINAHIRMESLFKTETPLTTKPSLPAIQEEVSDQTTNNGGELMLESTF

By EC50 is commonly meant the midpoint of the concentration-response curve. A word on the IC50: it is the concentration needed to halve the response being measured. On to `CCCCCCCCCCCCCCCC(=O)OCC(O)CC(O)P(=O)([O-])O.[Na+]` (centres unmarked) [Compound 24b, reference compound], for which the EC50 at human LPA4, at human LPA3, at human LPA1 and at human LPA2 was more than 30 µM throughout. Further, the half-maximal inhibitory concentration (IC50) at human LPA1 was more than 30000 nM. Also, the “Inhibition (%) of autotaxin (ATX) phosphodiesterase activity” value (“Inhibition (%) of autotaxin” below) on recombinant ATX-HA is reported as 43.4%.
With `CCCCCC/C=C\CCCCCCCC(=O)OCC1COP(=O)(O)C1` (centres unmarked) [2ccPA (16:1), 2-carba cyclic phosphatidic acid 16:1, reference compound], the “Inhibition (%) of autotaxin” value on recombinant ATX-HA is on record as 78.5 ± 2.3%.
`CCCCCCCCCCCCCCCC(=O)OCC(O)CC(O)P(=O)([O-])O.[Na+]` (centres unmarked) [Compound 24a, reference compound]: the 50% effective concentration (EC50) at human LPA4, at human LPA3, at human LPA1 and on human LPA2 was more than 30 µM in each case. Moreover, the IC50 on human LPA1 is more than 30000 nM. Also, the “Inhibition (%) of autotaxin” value on recombinant ATX-HA came to 56.6%.
By Emax is commonly meant the maximal effect, on the per cent scale that the assay sets. Usually Ki stands for a measure of affinity in units of concentration, obtained from inhibition or displacement. A word on the inhibition: it is the percentage by which the read-out fell short of the control. Consider `CCCCCCCC/C=C\CCCCCCCC(=O)OC[C@@H](O)CC(Cl)P(=O)(O)O` (mixture of isomers) [Compound 18a, [1-Chloro-3(S)-hydroxyl-4-(oleoyloxy)butyl]-phosphonate], for which the EC50 at human LPA4 was 3.48 ± 0.561 µM; at human LPA3, more than 2.67 µM; on human LPA1, 0.528 µM; on human LPA2 it was more than 30 µM. Further, the Emax amounted to 40.5% at human LPA4 (CHO, Emax = (maximal efficacy of compound/maximal efficacy of LPA 18:1) × 100); 63.5% on human LPA3; 63.2% at human LPA1 (Emax = (maximal efficacy of compound/maximal efficacy of LPA 18:1) × 100). Also, the results for the IC50 on human LPA1, on human LPA2 (setting [1]) and on human LPA2 (antagonist of the LPA2 receptor) were more than 30000 nM, 1690 ± 85 nM and 1700 nM, respectively. The inhibition constant Ki at human LPA2 (antagonist mode vs 10 nM LPA) is 845 nM. For the same compound, the inhibition at 10 µM on recombinant ATX-HA stood at 92.5 ± 2.1%.
As to `CCCCCCCC/C=C\CCCCCCCC(=O)OC[C@@H](O)CC(Br)P(=O)(O)O` (mixture of isomers) [Compound 19a, [1-Bromo-3(S)-hydroxyl-4-(oleoyloxy)butyl]-phosphonate], the values for the half-maximal inhibitory concentration (IC50) on human LPA4, on human LPA1 and on human LPA2 (setting [1]) were 4 ± 0.424 µM, 1620 ± 116 nM and 815 ± 60 nM, respectively. The EC50 on human LPA4 is more than 30 µM; at human LPA3, more than 2.47 µM; at human LPA1, more than 30 µM; on human LPA2, more than 30 µM. Moreover, the Ki at human LPA4 (antagonist mode vs 400 nM LPA) stood at 2500 nM; at human LPA1, 694 nM; at human LPA2 (antagonist mode vs 10 nM LPA) it was 174 nM. Further, at human LPA3, the maximal response (Emax) amounted to 44.2%. In addition, the “Inhibition (%) of autotaxin” value at recombinant ATX-HA is given as 90.7 ± 2.3%. For the same compound, the inhibition at 10 µM at recombinant ATX-HA was more than 90%.
For the compound `CCCCCCCCCCCCCCCC(=O)OC[C@@H](O)CC(Cl)P(=O)(O)O` (mixture of isomers) [Compound 18b, [1-Chloro-3(S)-hydroxyl-4-(palmitoyloxy)butyl]-phosphonate], the EC50 on human LPA4, on human LPA3, on human LPA1 and at human LPA2 was more than 30 µM in each case. In addition, the inhibition at 30 µM on human LPA4 (CHO, read-out: LPA4 inhibition of 400 nM LPA response) turned out to be 80%. Further, the inhibition constant (Ki) at human LPA3 (antagonist mode vs 200 nM LPA, read-out: LPA3 (Ki)) worked out at 98.3 nM; at human LPA1, 919 nM; on human LPA2 (antagonist mode vs 10 nM LPA), 428 nM. Further, the half-maximal inhibitory concentration (IC50) on human LPA3 (read-out: LPA3 IC50) amounted to 175 nM; on human LPA1, 2490 ± 690 nM; at human LPA2 (setting [1]) it was 855 nM. Also, the inhibition at 10 µM on recombinant ATX-HA was 83 ± 2.1%.
